Assay: Heptane/acetonitrile partition (Kpartition) and extraction factor after hydroformylation
Type: physicochemical
Details: for Kpartition = amount of product in the heptane phase/amount of product in the acetonitrile phase: Examples 4, 6, 8, Ligand B reaction solution in heptane (2 milliliters) extracted with acetonitrile (2 milliliters), gas chromatography; for Kpartition = amount of material in the heptane phase/amount of material in the acetonitrile phase: room temperature; for extraction factor = Kpartition rhodium/Kpartition product: heptane/acetonitrile
Procedure: To the vessel was then added an equal volume of acetonitrile. The mixture was vigorously shaken for several minutes then allowed to settle and phase separate. The layers were then analyzed for rhodium content and hydroformylation product. The partition coefficient of the catalyst and the product, as defined bay Kpartition=amount of material in the heptane phase/amount of material in the acetonitrile phase, was then determined for each component.
A portion of the reaction solution (2 milliliters) was extracted with acetonitrile (2 milliliters). The phases were separated and the content of ethyl 11-formylundecanoate product was determined in both phases by gas chromatography.
A portion of the reaction solution (2 milliliters) was extracted with acetonitrile (2 milliliters). The phases were separated, and the content of methyl 11-formylundecanoate product in each phase was determined by gas chromatography.
A portion of the reaction solution (2 milliliters) was extracted with acetonitrile (2 milliliters). The phases were separated and the content of butyl 11-formylundecanoate product was determined in both phases by gas chromatography.
A portion of the reaction solution (5 mL) was diluted with heptane (10 mL), shaken at room temperature under nitrogen with acetonitrle (13 mL) and allowed to settle. Two phases with approximately equal volumes were analyzed for rhodium and the hydroformylation product. The partition coefficient of the catalyst and the product defined as Kpartition=amount of material in the heptane phase/amount of material in the acetonitrile phase was determined for each component.

| Kpartition = amount of product in the heptane phase/amount of product in the acetonitrile phase | Kpartition = amount of material in the heptane phase/amount of material in the acetonitrile phase (Example 2, Example 1 reaction solution (Ligand A, ethyl 10-undecenoate), equal volume acetonitrile) | extraction factor = Kpartition rhodium/Kpartition product (Example 2) | Kpartition = amount of material in the heptane phase/amount of material in the acetonitrile phase (Example 9, Ligand A, methyl 10-undecenoate, 5 mL reaction solution diluted with heptane (10 mL), acetonitrile (13 mL)) | extraction factor = Kpartition rhodium/Kpartition product (Example 9) | Compound |
| --- | --- | --- | --- | --- | --- |
| 0.56 |  |  |  |  | CCCCOC(=O)CCCCCCCCCCC=O [butyl 11-formylundecanoate] |
| 0.25 |  |  |  |  | CCOC(=O)CCCCCCCCCCC=O [ethyl 11-formylundecanoate] |
| 0.19 |  |  |  |  | COC(=O)CCCCCCCCCCC=O [methyl 11-formylundecanoate] |
|  | 170 | 680 | 166 | 976 | rhodium |
